Consider 43 compounds from patent publication US9447039B2, “Indole carboxamide derivatives and uses thereof” (priority 2012, dated 2016).

In the assay the test system is Mycobacterium tuberculosis H37Rv (ATCC #27294). Description: Minimum Inhibitory Concentration (MIC50) determination. It counts as cell-based. The conditions noted are these: 120 h. The protocol: Mycobacterium tuberculosis H37Rv (ATCC #27294) (Mtb) strain was maintained in Middlebrook 7H9 broth medium supplemented with 0.05% Tween 80 and 10% ADS supplement. ADS supplement contains 5% bovine serum albumin fraction V. 2% D-dextrose and 0.8% of sodium chloride. Middlebrook 7H11 agar medium supplemented with 10% OADC (oleic acid, albumin, dextrose and catalase) was used as solid media for growing Mtb. Stock solutions of the compounds were prepared using 90% DMSO.
Minimum Inhibitory Concentration (MIC50) Determination
In Table 5 below, MIC50 is defined as the lowest concentration of the compound that inhibited 50% growth of the wild type strain compared to untreated controls. Test compounds were two or three fold serially diluted in duplicates and spotted by mosquito HTS to 384-well clear plates, resulting in 10 dilutions of each compound. A volume of 50 μl of Mtb culture (final OD600 of 0.02) was added to each well, and the assay plates were incubated at 37° C. for 5 days. Growth of bacteria was measured by reading absorbance at 600 nm using a Spectramax M2 spectrophotometer. MIC50 values were determined by using Activity Base software.

Structures are written as SMILES. ≈ marks a conversion by molar mass, not a printed value.

For orientation: MIC50 means the lowest concentration that inhibits either 50% of growth or 50% of the strains tested, depending on the study. Read a high MIC50 as weaker potency. Compound `CC1(C)CCC(NC(=O)c2cc3c(Cl)cc(Cl)cc3[nH]2)CC1` [Example 1A, 4,6-dichloro-N-(4,4-dimethylcyclohexyl)-1H-indole-2-carboxamide] returned an MIC50 of 0.015 µM (≈ 0.00509 µg/mL).
With `CC1(C)CCC(NC(=O)c2cc3c(F)cc(F)cc3[nH]2)CC1` [Example 2A, N-(4,4-Dimethylcyclohexyl)-4,6-difluoro-1H-indole-2-carboxamide] the figure was 0.023 µM (≈ 0.00705 µg/mL).
The same measure for `Cc1cc(C)c2cc(C(=O)Nc3ccc(C(C)C)cc3)[nH]c2c1` [Example 3A, N-(4-Isopropylphenyl)-4,6-dimethyl-1H-indole-2-carboxamide]: 8.67 µM (≈ 2.66 µg/mL); for `Cc1cc(C)c2cc(C(=O)Nc3ccc(Cl)cc3)[nH]c2c1` [Example 3B, N-(4-Chlorophenyl)-4,6-dimethyl-1H-indole-2-carboxamide]: 2.95 µM (≈ 0.881 µg/mL).
With `Cc1cc(C)c2cc(C(=O)Nc3ccc(F)cc3)[nH]c2c1` [Example 3C, N-(4-Fluorophenyl)-4,6-dimethyl-1H-indole-2-carboxamide] the figure was 2.45 µM (≈ 0.692 µg/mL); with `Cc1cc(C)c2cc(C(=O)NCCC(C)C)[nH]c2c1` [Example 3D, N-Isopentyl-4,6-dimethyl-1H-indole-2-carboxamide], 3.26 µM (≈ 0.842 µg/mL); with `Cc1cc(C)c2cc(C(=O)NC(C)CCc3ccccc3)[nH]c2c1` (stereo not shown) [Example 3E, 4,6-Dimethyl-N-(4-phenylbutan-2-yl)-1H-indole-2-carboxamide], 5.74 µM (≈ 1.84 µg/mL).
On to `CCC(CC)NC(=O)c1cc2c(C)cc(C)cc2[nH]1` [Example 3F, 4,6-Dimethyl-N-(pentan-3-yl)-1H-indole-2-carboxamide], for which the MIC50 came out at 4.33 µM (≈ 1.12 µg/mL).
With `Cc1cc(C)c2cc(C(=O)NC3CCCCCC3)[nH]c2c1` [Example 3G, N-Cycloheptyl-4,6-dimethyl-1H-indole-2-carboxamide] the figure was 0.098 µM (≈ 0.0279 µg/mL).
`Cc1cc(C)c2cc(C(=O)NC3CCCCC3C)[nH]c2c1` (stereo not shown) [Example 3H, 4,6-Dimethyl-N-(2-methylcyclohexyl)-1H-indole-2-carboxamide]: the MIC50 worked out at 0.32 µM (≈ 0.091 µg/mL).
With `CCC(C)CNC(=O)c1cc2c(C)cc(C)cc2[nH]1` (stereo not shown) [Example 3I, 4,6-Dimethyl-N-(2-methylbutyl)-1H-indole-2-carboxamide] the figure was 2.48 µM (≈ 0.641 µg/mL); with `Cc1cc(C)c2cc(C(=O)NCC(C)C)[nH]c2c1` [Example 3J, N-Isobutyl-4,6-dimethyl-1H-indole-2-carboxamide], 11.8 µM (≈ 2.9 µg/mL).
With `Cc1ccc(NC(=O)c2cc3c(C)cc(C)cc3[nH]2)cc1` [Example 3K, 4,6-Dimethyl-N-(p-tolyl)-1H-indole-2-carboxamide] the figure was 5.64 µM (≈ 1.57 µg/mL); with `Cc1cc(C)c2cc(C(=O)Nc3ccccc3C)[nH]c2c1` [Example 3L, 4,6-Dimethyl-N-(o-tolyl)-1H-indole-2-carboxamide], 3.12 µM (≈ 0.868 µg/mL).
`CCC(C)NC(=O)c1cc2c(C)cc(C)cc2[nH]1` (stereo not shown) [Example 3M, N-(sec-Butyl)-4,6-dimethyl-1H-indole-2-carboxamide] showed an MIC50 of 9.33 µM (≈ 2.28 µg/mL).
Regarding `Cc1cc(C)c2cc(C(=O)NCC3CCCCC3)[nH]c2c1` [Example 3N, N-(Cyclohexylmethyl)-4,6-dimethyl-1H-indole-2-carboxamide], the MIC50 was 0.87 µM (≈ 0.247 µg/mL).
Compound `Cc1cc(C)c2cc(C(=O)N[C@@H]3CCCC[C@@H]3C)[nH]c2c1` [Example 4A, 4,6-Dimethyl-N-((1R,2S)-2-methylcyclohexyl)-1H-indole-2-carboxamide] showed an MIC50 of 0.07 µM (≈ 0.0199 µg/mL).
For the compound `Cc1cccc2[nH]c(C(=O)N[C@@H]3CCCC[C@@H]3C)cc12` [Example 4AA, 4-Methyl-N-((1R,2S)-2-methylcyclohexyl)-1H-indole-2-carboxamide], the MIC50 was determined as 0.25 µM (≈ 0.0676 µg/mL).
With `C[C@H]1CCCC[C@H]1NC(=O)c1cc2c(Br)cccc2[nH]1` [Example 4AB, 4-Bromo-N-((1R,2S)-2-methylcyclohexyl)-1H-indole-2-carboxamide] the figure was 0.29 µM (≈ 0.0972 µg/mL); with `C[C@H]1CCCC[C@H]1NC(=O)c1cc2ccc(Br)cc2[nH]1` [Example 4AC, 6-Bromo-N-((1R,2S)-2-methylcyclohexyl)-1H-indole-2-carboxamide], 0.5 µM (≈ 0.168 µg/mL).
In turn, `C[C@H]1CCCC[C@H]1NC(=O)c1cc2c(C#N)cccc2[nH]1` [Example 4AD, 4-Cyano-N-((1R,2S)-2-methylcyclohexyl)-1H-indole-2-carboxamide] registered an MIC50 of 0.76 µM (≈ 0.214 µg/mL).
The same measure for `N#Cc1ccc2cc(C(=O)NC3CCCCC3)[nH]c2c1` [Example 4AF, 6-Cyano-N-cyclohexyl-1H-indole-2-carboxamide]: 2.27 µM (≈ 0.608 µg/mL); for `N#Cc1ccc2cc(C(=O)NC3CCC(F)(F)CC3)[nH]c2c1` [Example 4AG, 6-Cyano-N-(4,4-difluorocyclohexyl)-1H-indole-2-carboxamide]: 3.36 µM (≈ 1.02 µg/mL); for `Cc1cc(Br)cc2[nH]c(C(=O)N[C@@H]3CCCC[C@@H]3C)cc12` [Example 4AH, 6-Bromo-4-methyl-N-((1R,2S)-2-methylcyclohexyl)-1H-indole-2-carboxamide]: 0.01 µM (≈ 0.00349 µg/mL).
The same measure for `Cc1cc(Br)c2cc(C(=O)N[C@@H]3CCCC[C@@H]3C)[nH]c2c1` [Example 4AI, 4-Bromo-6-methyl-N-((1R,2S)-2-methylcyclohexyl)-1H-indole-2-carboxamide]: 0.06 µM (≈ 0.021 µg/mL).
The same measure for `Cc1cc(C#N)cc2[nH]c(C(=O)N[C@@H]3CCCC[C@@H]3C)cc12` [Example 4AJ, 6-Cyano-4-methyl-N-((1R,2S)-2-methylcyclohexyl)-1H-indole-2-carboxamide]: 0.15 µM (≈ 0.0443 µg/mL); for `Cc1cc(C#N)c2cc(C(=O)N[C@@H]3CCCC[C@@H]3C)[nH]c2c1` [Example 4AK, 4-Cyano-6-methyl-N-((1R,2S)-2-methylcyclohexyl)-1H-indole-2-carboxamide]: 0.02 µM (≈ 0.00591 µg/mL); for `COc1cccc2[nH]c(C(=O)N[C@@H]3CCCC[C@@H]3C)cc12` [Example 4AL, 4-Methoxy-N-((1R,2S)-2-methylcyclohexyl)-1H-indole-2-carboxamide]: 1.59 µM (≈ 0.455 µg/mL).
`COc1ccc2cc(C(=O)N[C@@H]3CCCC[C@@H]3C)[nH]c2c1` [Example 4AM, 6-Methoxy-N-((1R,2S)-2-methylcyclohexyl)-1H-indole-2-carboxamide]: the MIC50 was 6.19 µM (≈ 1.77 µg/mL).
The same measure for `COc1ccc2[nH]c(C(=O)N[C@@H]3CCCC[C@@H]3C)cc2c1OC` [Example 4AN, 4,5-Dimethoxy-N-((1R,2S)-2-methylcyclohexyl)-1H-indole-2-carboxamide]: 1.02 µM (≈ 0.323 µg/mL); for `COc1cc(OC)c2cc(C(=O)N[C@@H]3CCCC[C@@H]3C)[nH]c2c1` [Example 4AO, 4,6-Dimethoxy-N-((1R,2S)-2-methylcyclohexyl)-1H-indole-2-carboxamide]: 1.46 µM (≈ 0.462 µg/mL).
The same measure for `C[C@H]1CCCC[C@H]1NC(=O)c1cc2cc3c(cc2[nH]1)OCO3` [Example 4AP, N-((1R,2S)-2-Methylcyclohexyl)-5H-[1,3]dioxolo[4,5-f]indole-6-carboxamide]: 2.13 µM (≈ 0.64 µg/mL).
In the case of `COc1cc2cc(C(=O)N[C@@H]3CCCC[C@@H]3C)[nH]c2cc1OC` [Example 4AQ, 5,6-Dimethoxy-N-((1R,2S)-2-methylcyclohexyl)-1H-indole-2-carboxamide], the MIC50 amounted to 19.5 µM (≈ 6.17 µg/mL).
With `COc1ccc2[nH]c(C(=O)N[C@@H]3CCCC[C@@H]3C)cc2c1` [Example 4AR, 5-Methoxy-N-((1R,2S)-2-methylcyclohexyl)-1H-indole-2-carboxamide] the figure was 7.53 µM (≈ 2.16 µg/mL); with `CC1CCC(NC(=O)c2cc3c(F)cc(Cl)cc3[nH]2)CC1` (stereo not shown) [Example 4AS, 6-Chloro-4-fluoro-N-(4-methylcyclohexyl)-1H-indole-2-carboxamide], 0.23 µM (≈ 0.071 µg/mL).
With `CC1CCC(NC(=O)c2cc3c(Cl)cc(F)cc3[nH]2)CC1` (stereo not shown) [Example 4AT, 4-Chloro-6-fluoro-N-(4-methylcyclohexyl)-1H-indole-2-carboxamide] the figure was 0.165 µM (≈ 0.0509 µg/mL); with `C[C@H]1CC[C@H](NC(=O)c2cc3c(F)cc(F)cc3[nH]2)CC1` [Example 4AU, 4,6-Difluoro-N-(trans-4-methylcyclohexyl)-1H-indole-2-carboxamide], 0.56 µM (≈ 0.164 µg/mL); with `C[C@H]1CC[C@H](NC(=O)c2cc3c(C#N)cc(C#N)cc3[nH]2)CC1` [Example 4AV, 4,6-Dicyano-N-(trans-4-methylcyclohexyl)-1H-indole-2-carboxamide], 0.225 µM (≈ 0.0689 µg/mL).
With `C[C@H]1CC[C@@H](NC(=O)c2cc3c(C#N)cc(C#N)cc3[nH]2)CC1` [Example 4AW, 4,6-Dicyano-N-(cis-4-methyl-cyclohexyl)-1H-indole-2-carboxamide] the figure was over 20 µM; with `O=C(NC1CCC(CO)CC1)c1cc2c(Cl)cc(Cl)cc2[nH]1` (stereo not shown) [Example 4AX, 4,6-Dichloro-N-(4-(hydroxymethyl)-cyclohexyl)-1H-indole-2-carboxamide], 13.5 µM (≈ 4.6 µg/mL).
For `C[C@H]1CCCC[C@H]1NC(=O)c1cc2c(F)cccc2[nH]1` [Example 4AY, 4-Fluoro-N-((1R,2S)-2-methylcyclohexyl)-1H-indole-2-carboxamide], the MIC50 came to 1.83 µM (≈ 0.502 µg/mL).
With `C[C@H]1CCCC[C@H]1NC(=O)c1cc2ccc(F)cc2[nH]1` [Example 4AZ, 6-Fluoro-N-((1R,2S)-2-methylcyclohexyl)-1H-indole-2-carboxamide] the figure was 1.35 µM (≈ 0.37 µg/mL); with `Cc1cc(C)c2cc(C(=O)N[C@@H]3CCC[C@H](C)[C@@H]3C)[nH]c2c1` [Example 4B, N-((1R,2S,3S)-2,3-Dimethylcyclohexyl)-4,6-dimethyl-1H-indole-2-carboxamide], 0.01 µM (≈ 0.00298 µg/mL).
